Measured values published in patent US20210251963A1, “UREA DERIVATIVES FOR USE IN THE TREATMENT OF SUBJECTS WITH ELEVATED EXPRESSION AND/OR ACTIVITY OF SRPK1” (Scandion Oncology A/S, priority 2018, published 2021).

Columns and labels:
Assay in all cases: Premier Screen kinase activity screening (33P ATP filter binding)
Format in all cases: biochemical
TAO1 = settings: 10 μM SCO-101, mean of assay duplicates
Outline: (§1)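 Each kinase was incubated with 10 μM compound and 33P-ATP, and incorporated radioactivity was captured on filters as a direct measure of enzyme activity. Mean percentage activity of the duplicates was then calculated against DMSO controls and reported with its standard deviation.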

PIM2 = target: T1, PIM2 (Homo sapiens, UniProt Q9P1W9); settings: 10 μM SCO-101, mean of assay duplicates, read-out: Kinase activity (percentage of DMSO control)
T1 construct: purchased MRC in Dundee (Premier Screen service)
Outline: as §1

NUAK1 = target: T2, NUAK1 (Homo sapiens, UniProt O60285); settings: 10 μM SCO-101, mean of assay duplicates, read-out: Kinase activity (percentage of DMSO control)
T2 construct: purchased MRC in Dundee (Premier Screen service)
Outline: as §1

Lck = target: T3, Lck (Homo sapiens, UniProt P06239); settings: 10 μM SCO-101, mean of assay duplicates, read-out: Kinase activity (percentage of DMSO control)
T3 construct: purchased MRC Dundee, Premier Screen (contract screening service)
Outline: as §1

PAK2 = target: T4, PAK2 (Homo sapiens, UniProt Q13177); settings: 10 μM SCO-101, mean of assay duplicates, read-out: Kinase activity (percentage of DMSO control)
T4 construct: MRC in Dundee (screening service)
Outline: as §1

MST3 = target: T5, MST3 (Homo sapiens, UniProt Q9Y6E0); settings: 10 μM SCO-101, mean of assay duplicates, read-out: Kinase activity (percentage of DMSO control)
T5 construct: purchased MRC in Dundee (Premier Screen service)
Outline: as §1

SIK2 = target: T6, SIK2 (Homo sapiens, UniProt Q9H0K1); settings: 10 μM SCO-101, mean of assay duplicates, read-out: Kinase activity (percentage of DMSO control)
T6 construct: MRC in Dundee (screening service)
Outline: as §1

TSSK1 = target: T7, TSSK1 (Homo sapiens, UniProt Q9BXA7); settings: 10 μM SCO-101, mean of assay duplicates, read-out: Kinase activity (percentage of DMSO control)
T7 construct: MRC in Dundee (screening service)
Outline: as §1

p38d MAPK = p38d MAPK (Homo sapiens, UniProt O15264); settings: 10 μM SCO-101, mean of assay duplicates, read-out: Kinase activity (percentage of DMSO control)
Outline: as §1

TTK = target: T8, TTK (Homo sapiens, UniProt P33981); settings: 10 μM SCO-101, mean of assay duplicates, read-out: Kinase activity (percentage of DMSO control)
T8 construct: MRC in Dundee (screening service)
Outline: as §1

PINK = target: T9, PINK (Tribolium castaneum, UniProt D6WMX4); settings: 10 μM SCO-101, mean of assay duplicates, read-out: Kinase activity (percentage of DMSO control)
T9 construct: purchased MRC Dundee, Premier Screen (contract screening service)
Outline: as §1

Aurora A = target: T10, Aurora A (Homo sapiens, UniProt O14965); settings: 10 μM SCO-101, mean of assay duplicates, read-out: Kinase activity (percentage of DMSO control)
T10 construct: MRC in Dundee (screening service)
Outline: as §1

SGK1 = target: T11, SGK1 (Homo sapiens, UniProt O00141, S422D); settings: 10 μM SCO-101, mean of assay duplicates, read-out: Kinase activity (percentage of DMSO control)
T11 construct: purchased MRC Dundee, Premier Screen (contract screening service)
Outline: as §1

MNK1 = target: T12, MNK1 (Homo sapiens, UniProt Q9BUB5); settings: 10 μM SCO-101, mean of assay duplicates, read-out: Kinase activity (percentage of DMSO control)
T12 construct: MRC in Dundee (screening service)
Outline: as §1

ERK2 = ERK2 (Homo sapiens, UniProt P28482); settings: 10 μM SCO-101, mean of assay duplicates, read-out: Kinase activity (percentage of DMSO control)
Outline: as §1

BRSK1 = target: T13, BRSK1 (Homo sapiens, UniProt Q8TDC3); settings: 10 μM SCO-101, mean of assay duplicates, read-out: Kinase activity (percentage of DMSO control)
T13 construct: purchased MRC in Dundee (Premier Screen service)
Outline: as §1

ROCK 2 = target: T14, ROCK 2 (Rattus norvegicus, UniProt Q62868); settings: 10 μM SCO-101, mean of assay duplicates, read-out: Kinase activity (percentage of DMSO control)
T14 construct: MRC Dundee (screening service)
Outline: as §1

RSK1 = target: T15, RSK1 (Homo sapiens, UniProt Q15418); settings: 10 μM SCO-101, mean of assay duplicates, read-out: Kinase activity (percentage of DMSO control)
T15 construct: MRC Dundee (screening service)
Outline: as §1

MARK4 = target: T16, MARK4 (Homo sapiens, UniProt Q96L34); settings: 10 μM SCO-101, mean of assay duplicates, read-out: Kinase activity (percentage of DMSO control)
T16 construct: MRC in Dundee (screening service)
Outline: as §1

MAP4K3 = MAP4K3 (Homo sapiens, UniProt Q8IVH8); settings: 10 μM SCO-101, mean of assay duplicates, read-out: Kinase activity (percentage of DMSO control)
Outline: as §1

STK33 = target: T17, STK33 (Homo sapiens, UniProt Q9BYT3); settings: 10 μM SCO-101, mean of assay duplicates, read-out: Kinase activity (percentage of DMSO control)
T17 construct: MRC Dundee (screening service)
Outline: as §1

EIF2AK3 = target: T18, EIF2AK3 (Homo sapiens, UniProt Q9NZJ5); settings: 10 μM SCO-101, mean of assay duplicates, read-out: Kinase activity (percentage of DMSO control)
T18 construct: MRC Dundee (screening service)
Outline: as §1

IRAK1 = IRAK1 (Homo sapiens, UniProt P51617); settings: 10 μM SCO-101, mean of assay duplicates, read-out: Kinase activity (percentage of DMSO control)
Outline: as §1

MARK1 = target: T19, MARK1 (Homo sapiens, UniProt Q9P0L2); settings: 10 μM SCO-101, mean of assay duplicates, read-out: Kinase activity (percentage of DMSO control)
T19 construct: purchased MRC in Dundee (Premier Screen service)
Outline: as §1

PKBa = target: T20, PKBa (Homo sapiens, UniProt P31749); settings: 10 μM SCO-101, mean of assay duplicates, read-out: Kinase activity (percentage of DMSO control)
T20 construct: purchased MRC in Dundee (Premier Screen service)
Outline: as §1

MAPKAP-K3 = target: T21, MAPKAP-K3 (Homo sapiens, UniProt Q16644); settings: 10 μM SCO-101, mean of assay duplicates, read-out: Kinase activity (percentage of DMSO control)
T21 construct: MRC in Dundee (screening service)
Outline: as §1

ERK8 = target: T22, ERK8 (Homo sapiens, UniProt Q8TD08); settings: 10 μM SCO-101, mean of assay duplicates, read-out: Kinase activity (percentage of DMSO control)
T22 construct: MRC in Dundee (screening service)
Outline: as §1

MINK1 = target: T23, MINK1 (Homo sapiens, UniProt Q8N4C8); settings: 10 μM SCO-101, mean of assay duplicates, read-out: Kinase activity (percentage of DMSO control)
T23 construct: purchased MRC in Dundee (Premier Screen service)
Outline: as §1

PRK2 = PRK2 (Homo sapiens, UniProt Q16513); settings: 10 μM SCO-101, mean of assay duplicates, read-out: Kinase activity (percentage of DMSO control)
Outline: as §1

VEG-FR = target: T24, VEG-FR (Homo sapiens, UniProt P17948); settings: 10 μM SCO-101, mean of assay duplicates, read-out: Kinase activity (percentage of DMSO control)
T24 construct: purchased MRC in Dundee (Premier Screen service)
Outline: as §1

FGF-R1 = target: T25, FGF-R1 (Homo sapiens, UniProt P11362); settings: 10 μM SCO-101, mean of assay duplicates, read-out: Kinase activity (percentage of DMSO control)
T25 construct: purchased MRC in Dundee (Premier Screen service)
Outline: as §1

CDK9-Cyclin T1 = target: T26, CDK9-Cyclin T1 (Homo sapiens, UniProt P50750); settings: 10 μM SCO-101, mean of assay duplicates, read-out: Kinase activity (percentage of DMSO control)
T26 construct: purchased MRC Dundee, Premier Screen (contract screening service)
Outline: as §1

PAK5 = PAK5 (Homo sapiens, UniProt Q9P286); settings: 10 μM SCO-101, mean of assay duplicates, read-out: Kinase activity (percentage of DMSO control)
Outline: as §1

NEK6 = target: T27, NEK6 (Homo sapiens, UniProt Q9HC98); settings: 10 μM SCO-101, mean of assay duplicates, read-out: Kinase activity (percentage of DMSO control)
T27 construct: MRC in Dundee (screening service)
Outline: as §1

PIM1 = target: T28, PIM1 (Homo sapiens, UniProt P11309); settings: 10 μM SCO-101, mean of assay duplicates, read-out: Kinase activity (percentage of DMSO control)
T28 construct: purchased MRC in Dundee (Premier Screen service)
Outline: as §1

T24 sequence (P17948 784-1338 limits assumed): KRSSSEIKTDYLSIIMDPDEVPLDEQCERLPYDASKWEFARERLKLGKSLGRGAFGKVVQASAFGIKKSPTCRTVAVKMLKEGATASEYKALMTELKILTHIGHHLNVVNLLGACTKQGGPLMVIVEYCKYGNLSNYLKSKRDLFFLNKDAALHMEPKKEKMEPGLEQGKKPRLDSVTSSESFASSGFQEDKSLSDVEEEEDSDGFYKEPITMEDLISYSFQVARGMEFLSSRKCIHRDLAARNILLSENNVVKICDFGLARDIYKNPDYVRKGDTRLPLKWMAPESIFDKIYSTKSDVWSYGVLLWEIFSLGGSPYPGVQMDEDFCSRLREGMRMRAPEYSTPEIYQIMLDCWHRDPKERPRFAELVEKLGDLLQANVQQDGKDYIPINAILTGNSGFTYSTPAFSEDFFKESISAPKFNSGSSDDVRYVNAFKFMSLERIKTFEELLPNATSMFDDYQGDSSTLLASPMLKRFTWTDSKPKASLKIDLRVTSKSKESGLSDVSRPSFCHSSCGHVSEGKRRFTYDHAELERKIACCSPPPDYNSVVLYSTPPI
T11 sequence (O00141 60-431 S422D limits assumed, species assumed): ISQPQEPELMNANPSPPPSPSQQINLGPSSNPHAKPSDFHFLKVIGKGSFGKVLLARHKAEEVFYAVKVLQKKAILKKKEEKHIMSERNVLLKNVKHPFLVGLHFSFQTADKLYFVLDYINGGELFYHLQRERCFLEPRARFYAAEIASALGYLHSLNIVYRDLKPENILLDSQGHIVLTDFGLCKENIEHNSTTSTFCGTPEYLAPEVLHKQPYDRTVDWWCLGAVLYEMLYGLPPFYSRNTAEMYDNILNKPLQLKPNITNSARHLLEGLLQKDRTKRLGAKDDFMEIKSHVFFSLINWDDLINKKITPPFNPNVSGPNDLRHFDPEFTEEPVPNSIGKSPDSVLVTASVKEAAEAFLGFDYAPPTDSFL
IRAK1, sequence (P51617 whole entry, species assumed): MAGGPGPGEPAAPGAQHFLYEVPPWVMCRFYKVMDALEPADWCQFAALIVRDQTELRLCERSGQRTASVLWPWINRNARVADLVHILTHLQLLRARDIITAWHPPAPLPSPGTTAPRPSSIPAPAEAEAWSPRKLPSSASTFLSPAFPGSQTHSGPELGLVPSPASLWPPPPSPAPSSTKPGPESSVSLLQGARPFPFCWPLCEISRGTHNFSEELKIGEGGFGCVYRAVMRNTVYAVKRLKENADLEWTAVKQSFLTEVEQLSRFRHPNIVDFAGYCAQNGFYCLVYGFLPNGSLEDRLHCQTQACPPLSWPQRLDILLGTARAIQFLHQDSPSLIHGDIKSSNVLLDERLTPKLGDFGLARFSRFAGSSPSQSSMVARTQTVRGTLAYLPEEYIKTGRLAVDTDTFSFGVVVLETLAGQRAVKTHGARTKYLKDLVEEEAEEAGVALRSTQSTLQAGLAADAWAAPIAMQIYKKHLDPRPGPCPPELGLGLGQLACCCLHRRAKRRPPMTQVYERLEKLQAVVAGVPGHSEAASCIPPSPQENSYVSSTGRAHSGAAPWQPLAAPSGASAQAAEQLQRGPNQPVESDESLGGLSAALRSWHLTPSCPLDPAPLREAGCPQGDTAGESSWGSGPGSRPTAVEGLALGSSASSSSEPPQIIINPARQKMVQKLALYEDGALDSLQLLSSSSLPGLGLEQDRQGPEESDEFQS
T4 sequence (Q13177 whole entry, species assumed): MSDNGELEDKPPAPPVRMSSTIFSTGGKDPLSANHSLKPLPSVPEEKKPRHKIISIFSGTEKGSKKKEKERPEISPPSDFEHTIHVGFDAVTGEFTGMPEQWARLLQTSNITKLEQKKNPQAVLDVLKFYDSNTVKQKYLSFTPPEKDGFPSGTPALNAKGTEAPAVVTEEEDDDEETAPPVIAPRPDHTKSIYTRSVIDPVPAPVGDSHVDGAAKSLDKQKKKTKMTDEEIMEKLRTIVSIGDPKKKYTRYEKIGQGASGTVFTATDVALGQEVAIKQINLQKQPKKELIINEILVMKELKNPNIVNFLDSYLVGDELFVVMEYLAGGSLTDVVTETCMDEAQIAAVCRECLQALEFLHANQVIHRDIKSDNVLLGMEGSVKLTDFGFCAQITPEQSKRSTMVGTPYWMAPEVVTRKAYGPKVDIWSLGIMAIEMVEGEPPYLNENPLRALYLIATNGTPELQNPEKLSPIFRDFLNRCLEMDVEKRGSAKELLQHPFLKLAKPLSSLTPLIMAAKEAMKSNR
T25 sequence (P11362 22-822, species assumed): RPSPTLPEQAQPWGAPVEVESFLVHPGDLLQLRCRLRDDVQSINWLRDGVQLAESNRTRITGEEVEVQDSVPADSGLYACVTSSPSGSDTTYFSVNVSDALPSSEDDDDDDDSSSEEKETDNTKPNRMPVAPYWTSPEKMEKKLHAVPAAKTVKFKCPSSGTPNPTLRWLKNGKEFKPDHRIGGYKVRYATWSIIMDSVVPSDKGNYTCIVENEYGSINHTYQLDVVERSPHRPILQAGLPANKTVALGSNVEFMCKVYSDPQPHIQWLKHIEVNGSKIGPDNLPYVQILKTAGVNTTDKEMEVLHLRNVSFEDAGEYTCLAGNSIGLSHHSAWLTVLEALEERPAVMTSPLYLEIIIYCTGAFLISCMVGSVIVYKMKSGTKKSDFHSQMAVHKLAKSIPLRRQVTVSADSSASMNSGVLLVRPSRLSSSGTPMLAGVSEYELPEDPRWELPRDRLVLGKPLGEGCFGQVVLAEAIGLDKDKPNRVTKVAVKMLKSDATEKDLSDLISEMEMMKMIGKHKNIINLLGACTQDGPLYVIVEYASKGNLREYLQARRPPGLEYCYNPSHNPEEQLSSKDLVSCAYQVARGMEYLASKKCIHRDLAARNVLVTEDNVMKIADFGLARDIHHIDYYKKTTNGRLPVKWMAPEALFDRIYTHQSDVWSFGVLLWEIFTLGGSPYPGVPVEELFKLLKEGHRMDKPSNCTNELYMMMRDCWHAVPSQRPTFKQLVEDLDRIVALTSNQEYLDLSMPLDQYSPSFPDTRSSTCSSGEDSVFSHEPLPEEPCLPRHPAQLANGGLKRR
T7 sequence (Q9BXA7 whole entry, species assumed): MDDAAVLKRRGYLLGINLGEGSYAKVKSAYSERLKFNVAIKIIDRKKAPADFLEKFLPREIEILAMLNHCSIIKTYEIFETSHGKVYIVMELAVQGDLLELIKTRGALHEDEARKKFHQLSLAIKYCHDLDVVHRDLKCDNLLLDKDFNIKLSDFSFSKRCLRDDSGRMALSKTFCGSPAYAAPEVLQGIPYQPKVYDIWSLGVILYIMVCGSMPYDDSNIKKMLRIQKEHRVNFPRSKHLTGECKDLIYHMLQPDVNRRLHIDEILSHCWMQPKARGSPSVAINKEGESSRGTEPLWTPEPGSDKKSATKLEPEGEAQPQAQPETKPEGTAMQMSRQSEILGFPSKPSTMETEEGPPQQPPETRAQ
PAK5, sequence (Q9P286 whole entry): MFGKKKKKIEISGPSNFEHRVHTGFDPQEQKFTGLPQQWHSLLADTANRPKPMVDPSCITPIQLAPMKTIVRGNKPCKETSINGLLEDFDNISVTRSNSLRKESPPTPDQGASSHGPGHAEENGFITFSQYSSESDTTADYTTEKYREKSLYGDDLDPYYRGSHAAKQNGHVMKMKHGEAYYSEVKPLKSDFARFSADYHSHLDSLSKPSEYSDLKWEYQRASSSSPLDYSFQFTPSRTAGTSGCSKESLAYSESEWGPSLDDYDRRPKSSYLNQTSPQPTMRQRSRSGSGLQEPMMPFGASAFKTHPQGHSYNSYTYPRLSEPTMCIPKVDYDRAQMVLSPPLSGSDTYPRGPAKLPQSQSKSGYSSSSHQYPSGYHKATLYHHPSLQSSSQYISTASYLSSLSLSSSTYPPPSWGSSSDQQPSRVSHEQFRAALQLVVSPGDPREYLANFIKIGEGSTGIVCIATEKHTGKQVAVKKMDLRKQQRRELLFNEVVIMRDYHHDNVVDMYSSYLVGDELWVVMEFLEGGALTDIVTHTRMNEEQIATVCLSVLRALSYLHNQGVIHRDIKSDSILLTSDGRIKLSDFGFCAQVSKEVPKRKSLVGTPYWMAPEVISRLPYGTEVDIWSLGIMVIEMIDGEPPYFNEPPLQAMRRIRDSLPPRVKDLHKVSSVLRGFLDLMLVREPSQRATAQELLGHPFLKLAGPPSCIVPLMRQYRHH
T13 sequence (Q8TDC3 whole entry, species assumed): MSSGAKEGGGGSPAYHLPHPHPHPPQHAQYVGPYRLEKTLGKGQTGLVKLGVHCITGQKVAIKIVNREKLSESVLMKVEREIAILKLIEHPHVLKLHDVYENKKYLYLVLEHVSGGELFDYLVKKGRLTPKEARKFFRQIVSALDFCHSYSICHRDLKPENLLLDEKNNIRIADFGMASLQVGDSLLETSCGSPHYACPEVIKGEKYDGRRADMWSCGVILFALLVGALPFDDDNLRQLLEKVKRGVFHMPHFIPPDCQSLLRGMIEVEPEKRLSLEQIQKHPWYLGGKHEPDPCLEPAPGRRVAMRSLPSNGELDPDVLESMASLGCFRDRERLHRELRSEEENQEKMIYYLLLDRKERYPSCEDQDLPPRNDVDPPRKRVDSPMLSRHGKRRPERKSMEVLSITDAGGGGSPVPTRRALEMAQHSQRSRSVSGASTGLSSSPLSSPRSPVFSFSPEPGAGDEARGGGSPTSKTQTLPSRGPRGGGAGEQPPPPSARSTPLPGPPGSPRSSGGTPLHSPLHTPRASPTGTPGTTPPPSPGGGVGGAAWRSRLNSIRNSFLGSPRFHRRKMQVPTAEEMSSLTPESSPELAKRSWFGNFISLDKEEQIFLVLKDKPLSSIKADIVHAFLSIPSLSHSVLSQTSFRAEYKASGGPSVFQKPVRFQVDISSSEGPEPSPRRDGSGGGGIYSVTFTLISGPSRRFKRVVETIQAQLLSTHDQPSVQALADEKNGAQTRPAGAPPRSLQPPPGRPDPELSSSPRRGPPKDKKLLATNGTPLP

O=C(Nc1cc(C(F)(F)F)cc(C(F)(F)F)c1)Nc1ccc(Br)cc1-c1nnn[nH]1 [SCO-101] was tested, and the “Kinase activity (percentage of DMSO control)” value (TAO1) was 116 percentage of DMSO control, the remaining activity at 10 µM (PIM2) was 72% and the remaining activity at 10 µM (NUAK1) was 49%. For the same compound, the remaining activity at 10 µM (Lck) was 103%, the remaining activity at 10 µM (PAK2) was 83% and the remaining activity at 10 µM (MST3) was 135%. For the same compound, the remaining activity at 10 µM (SIK2) was 81%, the remaining activity at 10 µM (TSSK1) was 83% and the remaining activity at 10 µM (p38d MAPK) was 113%. For the same compound, the remaining activity at 10 µM (TTK) was 88%, the remaining activity at 10 µM (PINK) was 104% and the remaining activity at 10 µM (Aurora A) was 94%. It also gave a remaining activity at 10 µM (SGK1) of 103%, a remaining activity at 10 µM (MNK1) of 91% and a remaining activity at 10 µM (ERK2) of 119%. The remaining activity at 10 µM (BRSK1) was 124%, the remaining activity at 10 µM (ROCK 2) was 101% and the remaining activity at 10 µM (RSK1) was 100%. The remaining activity at 10 µM (MARK4) was 90%, the remaining activity at 10 µM (MAP4K3) was 113% and the remaining activity at 10 µM (STK33) was 100%. The remaining activity at 10 µM (EIF2AK3) was 103%, the remaining activity at 10 µM (IRAK1) was 115% and the remaining activity at 10 µM (MARK1) was 74%. The remaining activity at 10 µM (PKBa) was 126%, the remaining activity at 10 µM (MAPKAP-K3) was 85% and the remaining activity at 10 µM (ERK8) was 93%. For the same compound, the remaining activity at 10 µM (MINK1) was 173%, the remaining activity at 10 µM (PRK2) was 120% and the remaining activity at 10 µM (VEG-FR) was 66%. The remaining activity at 10 µM (FGF-R1) was 123%, the remaining activity at 10 µM (CDK9-Cyclin T1) was 104% and the remaining activity at 10 µM (PAK5) was 121%. It also gave a remaining activity at 10 µM (NEK6) of 90% and a remaining activity at 10 µM (PIM1) of 61%.
